Laboratory results from patent US20210062149A1, “SINGLE B-CELL CULTIVATION METHOD” (Hoffmann-La Roche Inc., priority 2010, published 2021).

Assays:
[1] = system: rabbit B-cells; test: rbIgG ELISA of cell culture supernatants of rabbit B-cells co-cultivated with EL-4 B5 feeder cells; type: cell-based; details: for B-cell growth: SAC added to feeder mix
Procedure: (§1) a) The co-cultivation was performed in 96-well multi well plates with round bottom. A basis solution comprising EL-4 B5 cells (1.6×10^6 cells/15.2 ml) and cytokines in EL-4 B5 medium was prepared. 200 μl of the basis solution was added to each well of the multi well plate. To each well a single B-cell was added by fluorescence activated cell sorting. After the addition of the B-cells the plate was centrifuged for 5 min. at 300×g. The plate is incubated for seven days at 37° C.
[…] B cell culture supernatants were removed for screening and the cells harvested immediately for variable region gene cloning or frozen at −80° C. in 100 μl RLT buffer (Qiagen, Hilden, Germany).
(§2) The 96-well multi well plate in which the co-cultivation was performed was centrifuged after seven days of co-cultivation at 300×g for 5 min. 150 μl supernatant was removed and diluted at a ratio of 2:1 with PBS in a second 96-well multi well plate.
The ELISA was performed as outlined in Example 17.
The antibody was used at a concentration of 50 ng/ml. If the OD was or exceeded 1 after an incubation time of 5 min. a dilution series of from 0.8 to 108 ng/ml IgG was tested.
Antibodies produced by single deposited and co-cultivated B-cells or from B-cells obtained from an immunized experimental animal can be characterized with respect to specific antigen binding. The ELISA was performed at room temperature and the ELISA-solution was incubated between the individual steps on a shaker at 20×g. In the first step the antigen was bound to the wells of a 96-well multi well plate. If the antigen was a protein it had been diluted in coating buffer and applied directly to the plate. Peptide antigens were bound via the specific binding pair biotin/streptavidin. The wells of the multi well plate can be already coated with soluble CroteinC (CrC) by the manufacturer. If not, the wells were incubated after the immobilization of the antigen with 200 μl blocking buffer. After the incubation with 100 μl antigen solution per well (pre-coated multi well plate) or 200 μl blocking buffer, respectively, non-bound antigen or blocking buffer was removed by washing with wash buffer. The diluted B-cell supernatants were added in a volume of 100 μl per well and incubated. After the incubation the wells were washed. Afterwards the detection antibody was added in a volume of 100 μl per well. The antibody can be either conjugated to horseradish peroxidase or labeled with biotin. The detection antibody was determined with a streptavidin-horseradish peroxidase conjugate. After the incubation the multi well plate was washed and afterwards 50 μl of a substrate solution containing 3,3′,5,5′ tetramethyl benzidine (TMB) were added per well and incubated for a period as given in Table X. The enzymatic reaction was stopped by the addition of 50 μl sulfuric acid and the optical density was determined at 450 nm and 680 nm with a photometer (Rainbow Thermo ELISA Reader) and the Xread plus-software.

[2] = system: hamster B-cells; test: Co-cultivation of B-cells with feeder cells and feeder mix additives; type: cell-based
Procedure: as §1, §2

[3] = system: murine B-cells; test: as above; type: cell-based, mouse
Procedure: as §1, §2

[4] = PAP-1 0.01 μM, in the presence of TSN and SAC
[5] = PAP-1 0.1 μM, in the presence of TSN and SAC
[6] = PAP-1 1 μM, in the presence of TSN and SAC
[7] = PAP-1 10 μM, in the presence of TSN and SAC
[8] = addition of PAP-1 to co-cultivation
[9] = SAC 1:20000, Table 8a third block (with w/o control)
[10] = SAC 1:50000, Table 8a third block
[11] = SAC 1:100000, Table 8a third block
[12] = SAC 1:150000, Table 8a third block
[13] = TSN + SAC, SAC 1:5000, Table 8a second block
[14] = TSN + SAC, SAC 1:10000, Table 8a second block
[15] = TSN + SAC, SAC 1:20000, Table 8a second block
[16] = TSN + SAC, SAC 1:40000, Table 8a second block

O=c1ccc2c(OCCCCOc3ccccc3)c3ccoc3cc2o1 [PAP-1, 5-(4-phenoxybutoxy) psoralene, reference compound]
rbIgG conc. of all huCk^+ wells [average ng/ml] [1, 4]: 289.0 ng/mL | rbIgG^+ wells [% total wells] [1, 4]: 29 % total wells | rbIgG^+ wells [n] [1, 4]: 72 n | rbIgG conc. of all huCk^+ wells [average ng/ml] [1, 5]: 452.9 ng/mL | rbIgG^+ wells [% total wells] [1, 5]: 27 % total wells | rbIgG^+ wells [n] [1, 5]: 69 n | rbIgG conc. of all huCk^+ wells [average ng/ml] [1, 6]: 579.5 ng/mL | rbIgG^+ wells [% total wells] [1, 6]: 37 % total wells | rbIgG^+ wells [n] [1, 6]: 93 n | rbIgG conc. of all huCk^+ wells [average ng/ml] [1, 7]: 890.7 ng/mL | rbIgG^+ wells [% total wells] [1, 7]: 32 % total wells | rbIgG^+ wells [n] [1, 7]: 80 n | effect on number of B-cell clones [1, 8]: without decreasing the number of B-cell clones | effect on rbIgG secretion of B-cells [1, 8]: increases the rbIgG secretion of B-cells in a concentration dependent manner

Staphylococcus aureus strain Cowans cells [SAC]
rbIgG conc. of all rbIgG^+ wells [Ø ng/ml] [1, 9]: 665 ng/mL | rbIgG^+ wells [% total wells] [1, 9]: 30 % total wells | rbIgG^+ wells [n] [1, 9]: 75 n | rbIgG conc. of all rbIgG^+ wells [Ø ng/ml] [1, 10]: 742 ng/mL | rbIgG^+ wells [% total wells] [1, 10]: 37 % total wells | rbIgG^+ wells [n] [1, 10]: 93 n | rbIgG conc. of all rbIgG^+ wells [Ø ng/ml] [1, 11]: 774 ng/mL | rbIgG^+ wells [% total wells] [1, 11]: 37 % total wells | rbIgG^+ wells [n] [1, 11]: 92 n | rbIgG conc. of all rbIgG^+ wells [Ø ng/ml] [1, 12]: 668 ng/mL | rbIgG^+ wells [% total wells] [1, 12]: 29 % total wells | rbIgG^+ wells [n] [1, 12]: 72 n | B-cell growth ([1]; PBL (B cells and endogenous T cells) mixture for co-cultivation): B-cell growth was inhibited | B-cell growth ([1]; single deposited B-cells): only single deposited B-cells have a benefit in growth | number of IgG^+-wells/cell clones ([1]; SAC ratio of from 1:20000 to 1:150000): increased number of IgG^+-wells/cell clones | number of IgG^+-wells/cell clones ([1]; SAC ratio of from 1:50000 to 1:100000): highest numbers | rbIgG conc. of all rbIgG^+ wells [Ø ng/ml] [1, 13]: 149.0 ng/mL | rbIgG^+ wells [% total wells] [1, 13]: 15 % total wells | rbIgG^+ wells [n] [1, 13]: 13 n | rbIgG conc. of all rbIgG^+ wells [Ø ng/ml] [1, 14]: 159.1 ng/mL | rbIgG^+ wells [% total wells] [1, 14]: 18 % total wells | rbIgG^+ wells [n] [1, 14]: 15 n | rbIgG conc. of all rbIgG^+ wells [Ø ng/ml] [1, 15]: 233.7 ng/mL | rbIgG^+ wells [% total wells] [1, 15]: 32 % total wells | rbIgG^+ wells [n] [1, 15]: 27 n | rbIgG conc. of all rbIgG^+ wells [Ø ng/ml] [1, 16]: 197.2 ng/mL | rbIgG^+ wells [% total wells] [1, 16]: 36 % total wells | rbIgG^+ wells [n] [1, 16]: 30 n | number of antibody secreting B-cells and average IgG-concentration in the supernatant after co-cultivation ([1]; addition of SAC, single SAC lot): can be increased

IL-6: interleukin-6, cytokine additive of the feeder mix
IgG-concentration ([2]; addition of IL-6 to the feeder mix, hamster-B-cells): increased IgG-concentration | number of IgG^+-wells/cell clones ([3]; addition of IL-6 to the feeder mix, murine-B-cells): increased number of IgG^+-wells/cell clones

B1: IL-4: interleukin-4, cytokine additive of the feeder mix (protein, UniProt P07750 21-140, looked up)
Interleukin-4: HIHGCDKNHLREIIGILNEVTGEGTPCTEMDVPNVLTATKNTTESELVCRASKVLRIFYLKHGKTPCLKKNSSVLMELQRLFRAFRCLDSSISCTMNESKSTSLKDFLESLKSIMQMDYS
number of IgG^+-wells/cell clones and IgG-concentration in the supernatant ([2]; addition of IL-4 to the feeder mix, hamster B-cells): increases the number of IgG^+-wells/cell clones as well as the IgG-concentration in the supernatant | number of IgG^+-wells/cell clones and IgG-concentration in the supernatant ([3]; addition of IL-4 to the feeder mix, murine B-cells): increases the number of IgG^+-wells/cell clones as well as the IgG-concentration in the supernatant
